Reference: US20210161997A1, “TREATING DISEASES VIA TARGETED MODULATION OF GENE SIGNALING NETWORKS” (Camp4 Therapeutics Corporation, priority 2018, published 2021)

Assays:
[1] = system: MECP2 mRNA; experiment: qPCR of MECP2 mRNA in mouse hepatocytes; settings: 10 uM, qPCR relative to DMSO control (FIG. 8)
Source text: (§1) Samples were amplified using Taqman probes from ThermoFisher.

[2] = system: MECP2 mRNA; experiment: MECP2 mRNA in primary human hepatocytes (donor 1, donor 2); type: cell-based; settings: two donors, indicated dosages vs DMSO (FIGS. 10A and 10B)
Outline: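 Cryopreserved primary human hepatocytes from separate donors were placed on serum-free or modified maintenance medium and then treated with compound for about 16–18 h. MECP2 mRNA was measured by TaqMan qPCR.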

[3] = system: SERPINC1 mRNA; experiment: Quantitative PCR of SERPINC1 mRNA in mouse hepatocytes treated with compounds; type: cell-based; settings: for SERPINC1 mRNA, Mouse Heps, 1 uM: compound 1 uM; for SERPINC1 mRNA, Mouse Heps, 10 uM: compound 10 uM
Protocol: as §1
In some examples, RQ Min and RQ Max values are also reported. RQ Min and RQ Max are the minimum and maximum relative levels of gene expression in the test samples, respectively. They were calculated using the confidence level set in the analysis settings and the confidence level was set to one standard deviation (SD). These values were calculated using standard deviation as follows: […].
Compounds were tested in hepatocytes for upregulation of SERPINC1 mRNA for identification of potential treatments of SERPINC1/AT III deficiency.

[4] = system: SERPINC1 mRNA; experiment: RNA seq of SERPINC1 in MGH54 cells treated with select compounds; type: cell-based, human; settings: compound 10 uM
[5] = system: SERPINC1 mRNA; experiment: Quantitative PCR of SERPINC1 mRNA in primary human hepatocytes (Lonza Hu4282) treated with compounds; type: cell-based; settings: quantitative PCR; for SERPINC1 mRNA, Lonza Hu4282, 1 uM / SERPINC1 mRNA, Lonza Hu4282, 10 uM: primary human hepatocytes Lonza Hu4282; for SERPINC1 mRNA, Lonza Hu4282, 1 uM / SERPINC1 mRNA, H8290, 1 uM: compound 1 uM; for SERPINC1 mRNA, Lonza Hu4282, 10 uM / SERPINC1 mRNA, H8290, 10 uM: compound 10 uM; for SERPINC1 mRNA, H8290, 1 uM / SERPINC1 mRNA, H8290, 10 uM: hepatocytes H8290
[6] = system: ANGPTL3; experiment: RNA-seq of ANGPTL3 expression in compound-treated primary human hepatocytes; type: cell-based; settings: additional compounds (Table 13), linear fold change
Outline: (§2)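 Cryopreserved primary human hepatocytes from three donors, plated at 375,000 cells/well, switched to complete or modified maintenance medium, then dosed with compound (stocks at 1000× final) for about 18 h. Poly(A) mRNA was sequenced directionally, mapped to GRCh38 with STAR, and gene-level abundance (counts, FPKM) estimated with RSEM against GENCODE 24.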

[7] = system: APOL1 mRNA; experiment: APOL1 mRNA in primary human hepatocytes treated with Momelotinib or metabolite M21; type: cell-based; settings: 3.3 uM vs DMSO (FIG. 11, FIG. 12)
[8] = system: SERPINC1; experiment: RNA-seq of SERPINC1 expression in compound-treated primary human hepatocytes; type: cell-based; settings: significance FPKM ≥1, log 2(fold change) ≥0.5, q-value ≤0.05
Protocol: Human hepatocytes were obtained from two donors from Massachusetts General Hospital, namely MGH54 and MGH63, and one donor from Lonza, namely HUM4111B. Cryopreserved hepatocytes were cultured in plating media for 16 hours, transferred to maintenance media for 4 hours. Cultured on serum-free media for 2 hours, then a compound was added. The hepatocytes were maintained on the serum-free media for 16 hours prior to gene expression analysis. Primary human hepatocytes were stored in the vapor phase of a liquid nitrogen freezer (about -130° C.). Human hepatocytes cultured as described above were plated in 24-well format, adding 375,000 cells per well in a volume of 500 ul plating medium. Four hours before treatment, cells were washed with PBS and the medium was changed to either: fresh maintenance medium (complete) or modified maintenance medium. Compound stocks were prepared at 1000× final concentration and added in a 2-step dilution to the medium to reduce risk of a compound precipitating out of solution when added to the cells, and to ensure reasonable pipetting volumes. […] The plate was mixed by carefully swirling and after all wells were treated and returned to the incubator overnight. If desired, separate plates/wells were treated with vehicle-only controls and/or positive controls. If using multi-well plates, controls were included on each plate. After about 18 hours, cells were harvested for further analysis, e.g., ChIP-seq, RNA-seq, ATAC-seq, etc. This protocol is a modified version of the following protocols: MagMAX mirVana Total RNA Isolation Kit User Guide (Applied Biosystems #MAN0011131 Rev B.0), NEBNext Poly(A) mRNA Magnetic Isolation Module ([…]), and NEBNext Ultra Directional RNA Library Prep Kit for Illumina ([…]) (New England Biosystems #E74901). […] Two hundred μl of Lysis Binding Mix was used per well of the multiwell plate containing adherent cells (usually a 24-well plate). For mRNA isolation and library prep, the NEBNext Poly(A) mRNA Magnetic Isolation Module and Directional Prep kit was used. RNA isolated from cells above was quantified, and prepared in […] of each sample in 50 μl of nuclease-free water. This protocol may be run in microfuge tubes or in a 96-well plate. […] Genomic alignments were converted to transcriptome alignments based on reference transcript annotations from the Human GENCODE Gene Set release 24 (Harrow et al., Genome Res. […] Using unique and multimapped transcriptomic alignments, gene-level abundance estimates were computed using RSEM version 1.3.0 (Li and Dewey, BMC Bioinformatics (2011) 12:323) in a strand-aware manner, and including confidence interval sampling calculations, to arrive at posterior mean estimates (PME) of abundances (counts and normalized FPKM-fragments per kilobase of exon per million mapped fragments) from the underlying Bayesian model. Standard QC were applied (read integrity, mapping statistics, library complexity, fragment bias) to remove unsatisfactory samples. Differential gene expression was computed using the negative binomial model implemented by DESeq2 version 1.16.1 (Love et al., Genome Biol. (2014) 15(12):550). […] RNA-seq signals were also normalized by read depth and visualized using the UCSC browser. To identify small molecules that modulate target gene expression, primary human hepatocytes were prepared as a monoculture, and at least one small molecule compound was applied to the cells. RNA-seq was performed to determine the effects of the compounds on the expression of the target genes in hepatocytes. Fold change was calculated by dividing the level of expression in the cell system that had been perturbed by the level of expression in an unperturbed system.

[9] = system: UGT1A1; experiment: RNA-seq of UGT1A1 expression in compound-treated primary human hepatocytes; type: cell-based
Outline: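 Cryopreserved primary human hepatocytes from three donors were plated in 24-well format, then treated with compound diluted from 1000× stocks in serum-free maintenance medium for about 16–18 h. Poly(A) RNA-seq log2 fold change was computed against vehicle/pan-experiment controls. Significance required FPKM ≥1, log2FC ≥0.5 and q ≤0.05.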

[10] = system: FN1; experiment: RNA-seq of FN1 expression in compound-treated primary human hepatocytes; type: cell-based; settings: perturbed vs unperturbed, significance FPKM ≥1, log 2(fold change) ≥0.5, q-value ≤0.05
Outline: as §2

[11] = system: HMBS; experiment: RNA-seq of HMBS expression in compound-treated primary human hepatocytes; type: cell-based
Protocol: Human hepatocytes were obtained from two donors from Massachusetts General Hospital, namely MGH54 and MGH63, and one donor from Lonza, namely HUM4111B. Cryopreserved hepatocytes were cultured in plating media for 16 hours, transferred to maintenance media for 4 hours. Cultured on serum-free media for 2 hours, then a compound was added. The hepatocytes were maintained on the serum-free media for 16 hours prior to gene expression analysis. Primary human hepatocytes were stored in the vapor phase of a liquid nitrogen freezer (about −130° C.).
Human hepatocytes cultured as described above were plated in 24-well format, adding 375,000 cells per well in a volume of 500 ul plating medium. Four hours before treatment, cells were washed with PBS and the medium was changed to either: fresh maintenance medium (complete) or modified maintenance medium.
Compound stocks were prepared at 1000× final concentration and added in a 2-step dilution to the medium to reduce risk of a compound precipitating out of solution when added to the cells, and to ensure reasonable pipetting volumes. […]
For mRNA isolation and library prep, the NEBNext Poly(A) mRNA Magnetic Isolation Module and Directional Prep kit was used. RNA isolated from cells above was quantified, and prepared in […] of each sample in 50 μl of nuclease-free water. […]

Compound | SERPINC1 mRNA, Mouse Heps, 1 uM [3] | SERPINC1 mRNA, Mouse Heps, 10 uM [3] | SERPINC1, MGH54 (RNA seq), 10 uM [4] | SERPINC1 mRNA, Lonza Hu4282, 1 uM [5] | SERPINC1 mRNA, Lonza Hu4282, 10 uM [5] | further results
C=CCNC1=C2C[C@@H](C)C[C@H](OC)[C@H](O)[C@@H](C)/C=C(\C)[C@H](OC(N)=O)[C@@H](OC)/C=C\C=C(/C)C(=O)NC(=CC1=O)C2=O [17-AAG (Tanespimycin), Tanespimycin] | – | – | – | – | – | MECP2 mRNA change in mouse hepatocytes [1]: increased; MECP2 mRNA change in primary human hepatocytes [2]: dose-dependent increase
COc1ccc(-c2ccc3c(N4CCOC[C@@H]4C)nc(N4CCOC[C@@H]4C)nc3n2)cc1CO [AZD8055] | 3.2 | 3.4 | 0 | 1.3 | 1.61 | ANGPTL3-LINEAR FOLD CHANGE [6]: 0.4965
O=C1CCc2c(Oc3ccc4c(c3)[C@@H]3[C@H](O4)[C@H]3c3nc4cc(C(F)(F)F)ccc4[nH]3)ccnc2N1 [Lifirafenib (BGB-283)/BeiGene] | 0.81 | 1.1 | 1.43 | 1.05 | 1.21 | SERPINC1 mRNA, H8290, 1 uM [5]: 1.1; SERPINC1 mRNA, H8290, 10 uM [5]: 2.1
N#CCNC(=O)c1ccc(-c2ccnc(Nc3ccc(N4CCOCC4)cc3)n2)cc1 [Momelotinib] | – | – | – | – | – | APOL mRNA change in primary human hepatocytes [7]: Downregulation; SERPINC1 Fold Change (Log2) [8]: 0.93 Log2; UGT1A1 Fold Change (Log2) [9]: 1.05 Log2
CC(=O)NCC(=O)N1[C@@H]2CC[C@H]1c1ccc(Nc3ncc(C(F)(F)F)c(NC4CCC4)n3)cc12 [PF-3814735] | 1.2 | 1.86 | 2.43 | 0.99 | 2.6 | ANGPTL3-LINEAR FOLD CHANGE [6]: 0.4383
CN1CCN(c2nc(C3=C(c4c[nH]c5ccccc45)C(=O)NC3=O)c3ccccc3n2)CC1 [Sotrastaurin] | – | – | – | – | – | UGT1A1 Fold Change (Log2) [9]: 0.88 Log2; FN1 Fold Change (Log2) [10]: −0.81 Log2; HMBS Fold Change (Log2) [11]: 0.78 Log2
CCn1c(=O)c(-c2cc[nH]n2)cc2c(C)nc(N)nc21 [Voxtalisib] | 1.23 | 2.4 | 0 | 1.1 | 1.24 | SERPINC1 mRNA, H8290, 1 uM [5]: 1.2; SERPINC1 mRNA, H8290, 10 uM [5]: 1.5
